The compounds below were run against LRRK2 (Homo sapiens (Human), UniProt Q5S007, G2019S) (assay: In Vitro LRRK2 LabChip Assay). Conditions: Table 4.
Sequence of LRRK2 (Q5S007 970-2527 G2019S limits assumed): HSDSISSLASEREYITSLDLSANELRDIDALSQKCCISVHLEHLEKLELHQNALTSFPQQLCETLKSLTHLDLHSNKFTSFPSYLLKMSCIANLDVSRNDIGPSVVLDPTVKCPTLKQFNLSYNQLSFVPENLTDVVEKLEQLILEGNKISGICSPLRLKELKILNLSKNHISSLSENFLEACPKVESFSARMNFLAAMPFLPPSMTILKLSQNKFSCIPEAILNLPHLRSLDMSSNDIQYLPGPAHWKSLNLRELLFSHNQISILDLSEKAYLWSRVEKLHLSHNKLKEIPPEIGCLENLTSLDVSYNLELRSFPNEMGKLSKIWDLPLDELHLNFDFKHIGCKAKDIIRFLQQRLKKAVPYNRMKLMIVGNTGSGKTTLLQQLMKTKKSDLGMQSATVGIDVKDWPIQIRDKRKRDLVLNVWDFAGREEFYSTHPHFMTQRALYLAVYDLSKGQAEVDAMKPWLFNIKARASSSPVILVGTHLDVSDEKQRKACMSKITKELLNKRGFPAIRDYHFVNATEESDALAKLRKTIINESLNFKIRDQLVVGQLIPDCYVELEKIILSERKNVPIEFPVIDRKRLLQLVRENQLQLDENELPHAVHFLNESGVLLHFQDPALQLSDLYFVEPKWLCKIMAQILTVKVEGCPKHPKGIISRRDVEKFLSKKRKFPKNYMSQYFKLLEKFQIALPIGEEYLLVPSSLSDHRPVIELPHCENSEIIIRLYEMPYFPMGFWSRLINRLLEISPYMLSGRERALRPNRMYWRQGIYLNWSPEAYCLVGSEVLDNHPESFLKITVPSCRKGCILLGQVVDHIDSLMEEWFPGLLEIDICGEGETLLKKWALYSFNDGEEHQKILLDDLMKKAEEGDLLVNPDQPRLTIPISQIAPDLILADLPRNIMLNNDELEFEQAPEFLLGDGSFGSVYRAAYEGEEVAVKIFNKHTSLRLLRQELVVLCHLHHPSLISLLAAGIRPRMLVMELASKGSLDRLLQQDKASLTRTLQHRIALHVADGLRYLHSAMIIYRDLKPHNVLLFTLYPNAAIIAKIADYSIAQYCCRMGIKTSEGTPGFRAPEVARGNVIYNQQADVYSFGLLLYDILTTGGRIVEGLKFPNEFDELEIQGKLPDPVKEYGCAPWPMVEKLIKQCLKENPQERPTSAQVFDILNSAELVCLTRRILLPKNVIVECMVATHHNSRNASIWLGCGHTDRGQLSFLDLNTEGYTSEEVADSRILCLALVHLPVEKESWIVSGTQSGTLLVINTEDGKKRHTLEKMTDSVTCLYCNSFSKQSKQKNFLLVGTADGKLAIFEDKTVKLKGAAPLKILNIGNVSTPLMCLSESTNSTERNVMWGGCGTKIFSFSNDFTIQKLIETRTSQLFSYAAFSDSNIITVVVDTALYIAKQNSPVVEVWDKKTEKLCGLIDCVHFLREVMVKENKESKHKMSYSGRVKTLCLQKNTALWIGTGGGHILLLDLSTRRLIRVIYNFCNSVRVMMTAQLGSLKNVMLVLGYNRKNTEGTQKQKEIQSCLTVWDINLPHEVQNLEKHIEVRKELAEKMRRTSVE
Format: biochemical
Protocol: In Vitro LRRK2 LabChip Assay
This assay was used to determine a compound's potency in inhibiting activity of LRRK2 by determining, Kiapp, IC50, or percent inhibition values. In a polypropylene plate, LRRK2, fluorescently-labeled peptide substrate, ATP and test compound were incubated together. Using a LabChip 3000 (Caliper Life Sciences), after the reaction the substrate was separated by capillary electrophoresis into two populations: phosphorylated and unphosphorylated. The relative amounts of each were quantitated by fluorescence intensity. LRRK2 Ki was determined according to the equation: Y=V0*(1−((x+Ki*(1+S/Km)+Et)/(2*Et)−(((x+Ki*(1+S/Km)+Et)^2−(4*Et*x))^0.5)/(2*Et))). Ki values in Table 4 and elsewhere herein are shown in μM.
Assay conditions and materials used were as follows:
Compound Plate Preparation:
For serial dilutions, 34.6 μl DMSO was added to columns 3-24. For the assay controls, 37.5 μl DMSO was added to columns 1 and 2 of rows A and P. a,d and 50 μl 25 μM G-028831 (Staurosporine) was added to columns 1 and 2, row B. For the samples: to start at 100 μM, 37.5 μl DMSO was to columns 1 and 2, then 12.5 μl 10 mM compound; to start at 10 μM, 78 μl DMSO was added to columns 1 & 2, then 2 μl 10 mM compound; and to start at 1 μM, 25 μM compound (2 μl 10 mM cmpd+798 μl DMSO) was added to empty columns 1 and 2. A Precision instrument was used to perform 1:3.16 serial dilutions (“PLK_BM_serial_halflog”).
ATP was diluted to 282.1 μM in Complete Kinase Buffer (final concentration was 130 μM).
Total and Blank Preparation:
In Complete Reaction Buffer, substrate was diluted to 4 μM. Equal volumes of Complete Reaction Buffer and 4 μM substrate were combined to obtain the blank. Equal volumes of Complete Reaction Buffer and 4 μM substrate were combined and to the combined solution was added 2× final LRRK2 concentration.
To a 50 μl polypropylene plate, 5 μl/well buffer/substrate was added by hand to Blank wells. A Biomek FX was used to start the kinase reaction (“PLK SAR 23 ATP”). The following were added to the appropriate wells:
5 μl/well compound/ATP in Assay Plate;
5 μl/well kinase/substrate in Assay Plate;
The plate was incubated for 2 hours in the dark. Biomek FX was used to stop the kinase reaction (“PLK Stop”), and 10 μl/well Stop solution was added to the Assay Plate. Results were read on the LabChip 3000.
The LabChip 3000 was run using the job “LRRK2IC50” with the following job settings: […]
Compound `CNc1nc(Nc2ccc(C(=O)N3CCOCC3)cc2OC(F)(F)F)ncc1C(F)(F)F` [Example 235, (4-(4-(methylamino)-5-(trifluoromethyl)pyrimidin-2-ylamino)-3-(trifluoromethoxy)phenyl)(morpholino) methanone] has a Ki of 11.2 nM. In the case of `CCOc1cc(C(=O)N2CCOCC2)ccc1Nc1ncc(Cl)c(NC)n1` [Example 49, [4-(5-Chloro-4-methylamino-pyrimidin-2-ylamino)-3-ethoxy-phenyl]-morpholin-4-yl-methanone], the Ki is reported as 4.3 nM. `CNc1nc(Nc2ccc(C(=O)NC3CC3)cc2OC)ncc1Cl` [Example 5, 4-(5-Chloro-4-methylamino-pyrimidin-2-ylamino)-N-cyclopropyl-3-methoxy-benzamide] was tested, and the Ki was 2.4 nM. For `COc1cc(C(=O)N2CCOCC2)ccc1Nc1ncc(Cl)c(NC2CCOC2)n1` (stereo not drawn) [Example 214, {4-[5-Chloro-4-(tetrahydro-furan-3-ylamino)-pyrimidin-2-ylamino]-3-methoxy-phenyl}-morpholin-4-yl-methanone], the Ki was 18.4 nM. In the case of `CCC1(CC)CN(C(=O)c2ccc(Nc3ncc(Cl)c(NC)n3)c(OC)c2)CCO1` [Example 39, [4-(5-Chloro-4-methylamino-pyrimidin-2-ylamino)-3-methoxy-phenyl]-(2,2-diethyl-morpholin-4-yl)-methanone], the Ki is reported as 5.5 nM. Work on `CNc1nc(Nc2cc(OC)c(C(=O)N(C)CC(C)(C)O)cc2Cl)ncc1C(F)(F)F` [Example 181, 5-Chloro-N-(2-hydroxy-2-methyl-propyl)-2-methoxy-N-methyl-4-(4-methylamino-5-trifluoromethyl-pyrimidin-2-ylamino)-benzamide] yielded a Ki of 6.3 nM. `[2H]C1([2H])OCCN(C(=O)c2ccc(Nc3ncc(Br)c(OC)n3)c(OC)c2)[C@@H]1C` [Example 107, [4-(5-Bromo-4-methoxy-pyrimidin-2-ylamino)-3-methoxy-phenyl]-((R)-2,2-di-deutero-3-methyl-morpholin-4-yl)-methanone] showed a Ki of 2 nM. `CNc1nc(Nc2ccc(C(=O)N3CCC(O)CC3)cc2C)ncc1Cl` [Example 233, (4-(5-chloro-4-(methylamino)pyrimidin-2-ylamino)-3-methylphenyl)(4-hydroxypiperidin-1-yl)methanone] showed a Ki of 6.1 nM. In the case of `CNc1nc(Nc2cc(OC)c(C(=O)NCC(C)(C)O)cc2Cl)ncc1C(F)(F)F` [Example 175, 5-Chloro-N-(2-hydroxy-2-methyl-propyl)-2-methoxy-4-(4-methylamino-5-trifluoromethyl-pyrimidin-2-ylamino)-benzamide], the Ki is reported as 7.9 nM. `CNc1nc(Nc2cc(OC)c(C(=O)N(C)CCO)cc2Cl)ncc1Cl` [Example 163, 5-Chloro-4-(5-chloro-4-methylamino-pyrimidin-2-ylamino)-N-(2-hydroxy-ethyl)-2-methoxy-N-methyl-benzamide] showed a Ki of 7.8 nM. `CNc1nc(Nc2ccc(C(=O)N3CCN(CC(F)(F)F)CC3)cc2OC)ncc1Br` [Example 75, [4-(5-Bromo-4-methylamino-pyrimidin-2-ylamino)-3-methoxy-phenyl]-[4-(2,2,2-trifluoro-ethyl)-piperazin-1-yl]-methanone] was tested, and the Ki was 3.8 nM. Work on `CNc1nc(Nc2cc(OC)c(C(=O)N3CC(O)C3)cc2Cl)ncc1Cl` [Example 169, [5-Chloro-4-(5-chloro-4-methylamino-pyrimidin-2-ylamino)-2-methoxy-phenyl]-(3-hydroxy-azetidin-1-yl)-methanone] yielded a Ki of 5.4 nM. In the case of `COc1cc(C(=O)N2CCOCC2)ccc1Nc1ncc(Cl)c(NCC2CC2)n1` [Example 80, {4-[5-Chloro-4-(cyclopropylmethyl-amino)-pyrimidin-2-ylamino]-3-methoxy-phenyl}-morpholin-4-yl-methanone], the Ki is reported as 2.7 nM. For `CNc1nc(Nc2ccc(C(=O)N3CCOC(CC(C)C)C3)cc2OC)ncc1Cl` (stereo not drawn) [Example 41, [4-(5-Chloro-4-methylamino-pyrimidin-2-ylamino)-3-methoxy-phenyl]-(2-isobutyl-morpholin-4-yl)-methanone], the Ki was 4.2 nM. `CNc1nc(Nc2ccc(C(=O)N3C[C@H](F)[C@@H](F)C3)cc2OC)ncc1C#N` [Example 245, 2-(4-((3S,4S)-3,4-difluoropyrrolidine-1-carbonyl)-2-methoxyphenylamino)-4-(methylamino) pyrimidine-5-carbonitrile] was tested, and the Ki was 13.5 nM. `CNc1nc(Nc2ccc(C(=O)N3CCCC3C)cc2OC)ncc1Cl` (stereo not drawn) [Example 29, [4-(5-Chloro-4-methylamino-pyrimidin-2-ylamino)-3-methoxy-phenyl]-(2-methyl-pyrrolidin-1-yl)-methanone] gave a Ki of 3.8 nM. `CNc1nc(Nc2ccc(CC(=O)N3CCOCC3)cc2OC)ncc1C(F)(F)F` [Example 223, 2-[3-Methoxy-4-(4-methylamino-5-trifluoromethyl-pyrimidin-2-ylamino)-phenyl]-1-morpholin-4-yl-ethanone] gave a Ki of 5.2 nM. Work on `CNc1nc(Nc2cc(OC)c(C(N)=O)cc2Cl)ncc1Cl` [Example 141, 5-Chloro-4-(5-chloro-4-methylamino-pyrimidin-2-ylamino)-2-methoxy-benzamide] yielded a Ki of 9.3 nM. Compound `COc1nc(Nc2ccc(C(=O)N3CCOCC3)cc2OC2CC2)ncc1Br` [Example 218, [4-(5-Bromo-4-methoxy-pyrimidin-2-ylamino)-3-cyclopropoxy-phenyl]-morpholin-4-yl-methanone] has a Ki of 2.5 nM. For `CNc1nc(Nc2cc(OC)c(C(=O)NC3COC3)cc2Cl)ncc1C(F)(F)F` [Example 174, 5-Chloro-2-methoxy-4-(4-methylamino-5-trifluoromethyl-pyrimidin-2-ylamino)-N-oxetan-3-yl-benzamide], the Ki was 4.1 nM. With `CNc1nc(Nc2ccc(C(=O)N3CC4CCC(C3)O4)cc2OC)ncc1Cl` [Example 63, [4-(5-Chloro-4-methylamino-pyrimidin-2-ylamino)-3-methoxy-phenyl]-(8-oxa-3-aza-bicyclo[3.2.1]oct-3-yl)-methanone] the Ki was 2 nM.

Same assay, conditions: Table 5
For `COc1cc(Nc2ncc(Cl)c(OC)n2)c(Cl)cc1C(=O)N1CCOCC1` [Example 260, [5-Chloro-4-(5-chloro-4-methoxy-pyrimidin-2-ylamino)-2-methoxy-phenyl]-morpholin-4-yl-methanone], the Ki was 47 nM. In the case of `COc1cc(C(=O)N2CCOCC2)c(Cl)cc1Nc1ncc(C(F)(F)F)c(OC)n1` [Example 262, [2-Chloro-5-methoxy-4-(4-methoxy-5-trifluoromethyl-pyrimidin-2-ylamino)-phenyl]-morpholin-4-yl-methanone], the Ki is reported as 24 nM.

Same assay, conditions: Table 6
For `CNc1nc(Nc2ccc(C(=O)NCCOC)cc2OC)ncc1C(F)(F)F` [Example 281, 3-Methoxy-N-(2-methoxy-ethyl)-4-(4-methylamino-5-trifluoromethyl-pyrimidin-2-ylamino)-benzamide], the Ki was 2.3 nM. In the case of `CNc1nc(Nc2cc(Cl)c(C(=O)N3CCOCC3)cc2OC)ncc1Cl` [Example 293, [2-Chloro-4-(5-chloro-4-methylamino-pyrimidin-2-ylamino)-5-methoxy-phenyl]-morpholin-4-yl-methanone], the Ki is reported as 2.7 nM. For `CCNc1nc(Nc2ccc(C(=O)N(C)CCOC)cc2OC)ncc1C(F)(F)F` [Example 302, 4-(4-Ethylamino-5-trifluoromethyl-pyrimidin-2-ylamino)-3-methoxy-N-(2-methoxy-ethyl)-N-methyl-benzamide], the Ki was 2.3 nM. `CNc1nc(Nc2ccc(C(=O)N3CCC(C#N)CC3)cc2OC)ncc1C(F)(F)F` [Example 278, 1-[3-Methoxy-4-(4-methylamino-5-trifluoromethyl-pyrimidin-2-ylamino)-benzoyl]-piperidine-4-carbonitrile] gave a Ki of 1.7 nM.

Reference: patent US8802674B2, “Aminopyrimidine derivatives as LRRK2 modulators” (Genentech, Inc., priority 2011, dated 2014)
